According to a melting point compilation (Tetko et al.):

SMILES	melting point [°C]
CCN(CC)C(=O)C(C)Oc1cccc2ccccc12 (configuration not stated)	75
CCCCCOC(=O)CC	-73.1
Oc1ccc(Cl)c2cccnc12	130
Cc1ccc(C)c(C=Cc2ccc(-c3ccc(C=Cc4cc(C)ccc4C)cc3)cc2)c1	198
O=C(O)c1cccc(-c2ccccc2)c1	167
COC1=CC2C3Cc4ccc(OC)c(O)c4C2(CCN3C)CC1=O (configuration not stated)	162
Cc1cc(C)c(O)c(C(C)(C)C)c1	22.3
NS(=O)(=O)c1c(Cl)cc(Cl)cc1Cl	180
O=Cc1ccc(I)c(O)c1	131 to 132
CC1CNC(C(O)(C2=NCC(C)N2)C2=NCC(C)N2)=N1 (configuration not stated)	178 to 180
O=C(O)c1ccc(OC2CCOCC2)nc1	168 to 170
O=C(O)C(F)(F)C(F)(F)C(F)(F)C(F)(F)C(F)(F)C(F)(F)C(F)(F)C(F)F	67
Nc1ccc(-c2ccccc2)cn1	135
FCF	-136
O=C(O)c1cscc1S(=O)(=O)c1ccc(Cl)cc1	214 to 216
Cc1nn(-c2ccccc2)nc1C(=O)Cl	104 to 105
O=C(c1ccccc1)c1cc2c(cc1Br)OCCCO2	105 to 107
Cc1cc(C)nc(Cl)n1	34 to 36
O=C(C(=O)c1ccc2c3c(cccc13)CC2)c1ccccc1	148
Cn1ncc(Br)c1N	104 to 105
N#CCC(=O)NN	114
COC(=O)c1cccc([N+](=O)[O-])c1C(=O)OC	69
COc1cc(F)ccc1C#N	76
C#CC(C)(C)N	18
C=C(C)C(=O)OCC1CO1 (configuration not stated)	-82

SMILES	melting point [°C]
CCC(=O)C1(c2cccc(O)c2)CCN(C)CC1	156
CCOC(=O)c1cc(O)c(O)c(O)c1	151 to 154
O=C(O)c1cnon1	102 to 104
OC(O)C(F)(F)C(F)(F)C(F)(F)C(F)(F)C(F)(F)C(F)(F)C(F)(F)C(F)(F)F	91 to 94
CSc1ccccc1/N=C/c1cc(C(C)(C)C)cc(C(C)(C)C)c1O	135
C=C(C)C(=O)OCCC(F)(F)C(F)(F)C(F)(F)C(F)(F)C(F)(F)C(F)(F)C(F)(F)C(F)(F)C(F)(F)C(F)(F)F	45 to 50
O=C1c2ncccc2-c2cccnc21	229
N#Cc1ccccc1I	55
COc1ccccc1C1(C)CCc2oc3ccc(Cl)cc3c2-c2oc(C)cc21 (configuration not stated)	197 to 198
COc1cc(C(=O)c2ccccc2Cl)c([N+](=O)[O-])cc1OC	122
Cc1cc(Cl)cc(C=O)c1O	67 to 68
CC=C1CCC2C3CCC4CC(OC(C)=O)CCC4(C)C3CCC12C (configuration not stated)	118 to 120
CSc1nc2[nH]c(=S)n(-c3ccccc3)c(=O)c2n1C	268 to 270
Cc1ccc2c3ccccc3c3ccccc3c2c1	100
CCCCN(CCN(CCCC)C(=O)N1CCOCC1)C(=O)N1CCOCC1	41.5
CCCCCCCCCCCCCCCCCC(CC)c1ccccc1 (configuration not stated)	29.3
Cc1cc(/C=C/c2ccccc2N)c(N)cc1N	151
CCOC(=O)c1cc(C)n(Cc2ccccc2)n1	37
Cc1cncc(N2CCC(C(=O)Oc3c(F)c(F)c(F)c(F)c3F)CC2)n1	94 to 95
Cc1ccc2sc(C=O)cc2c1	98 to 99
C1CCN(C2CCNCC2)CC1	68
OC12CCCCC1c1ccccc12 (configuration not stated)	112
C=Cc1ccc(CC)cc1	-49.7
Cn1nnc2cc(CO)ccc21	94 to 96
COC(=O)c1cc2cc(S(C)(=O)=O)ccc2[nH]1	175 to 179

SMILES	melting point [°C]
CCN(CC)C(=O)CC(C)=O	-73
Fc1nc(F)c(Cl)c(F)c1Cl	25
ClCc1nc(-c2cccs2)no1	59 to 60
O=C(O)c1ccncc1	315
Cc1ccc(/C=C2\CCC/C(=C\c3ccc(C)s3)C2=O)s1	166
Cc1cccc(C(C)(C)C)c1O	31
COc1ccc(/C=C(/C#N)c2nc3ccccc3c(=O)[nH]2)cc1	280
NC(=NO)c1cccc(C(=O)O)c1	196 to 197
Cc1ccc(NC=C2C(=O)NN=C2c2c(O)c3ccccc3n(C)c2=O)cc1	282
O=C1CCCCCCCCCCC(=O)OCCO1	18
Cc1ccn(-c2ccccc2)n1	37
Cn1c(=O)c2[nH]cnc2n(C)c1=O	270
FC(F)(F)c1cc(Cl)c2nc(S)[nH]c2c1	310 to 312
N#Cc1nc(C#N)nc(C#N)n1	119
Brc1ccc2c(c1)Oc1ccc(Br)cc1O2	193
COC1=C(OC)/C(=C/C2CCC=CC23OC(=O)C(OC)=C3OC)OC1=O (configuration not stated)	118 to 120
ON=Cc1ccc2ccccc2c1	169
COS(=O)(=O)c1ccc(C)cc1	28.5
C=CC(=O)OCC(CC)CC	-70
COc1ccc(C=Cc2ccccc2)cc1	135 to 138
CCC(=O)c1c(O)cc(O)cc1O	176
O=C(CCCl)c1ccccc1	48.5
ClCc1noc(-c2ccccc2)n1	64
CCCCc1c(C)nc(N)nc1Cl	162
O=C(CN1CCNCC1)N1CCCC1	75 to 76

SMILES	melting point [°C]
COc1cc(Br)cc2cc(C(=O)O)c(=O)oc12	226 to 228
CC1CCCC(C)N1C(=O)COC(=O)c1ccccc1 (configuration not stated)	118
CC(C)C(N)=NO	60 to 61
O=c1c(O)c(-c2ccc(O)cc2O)oc2cc(O)cc(O)c12	304
Cc1ccc(C)c(N/N=C(\C#N)c2nc3ccccc3n2C)c1	260
CCC1CCc2ccccc2C1 (configuration not stated)	-42.8
CNCC(O)c1cccc(O)c1 (configuration not stated)	170
CCCCCCCC(=O)CCCCCCC	43
Cc1nccnc1O	153
COC(=O)CCC(C)C1CCC2C3CCC4CCCCC4(C)C3CC(=O)C12C (configuration not stated)	109
N#Cc1ncc(F)cc1F	32
COc1cc(Cl)ccc1CO	47
FCC(F)(F)F	-101
O=c1[nH]c2ccccc2n1C1=CCNCC1	195 to 200
C/C(=C\C(=O)c1ccc(F)cc1)c1ccc(F)cc1	51
C[C@@](O)(CC(=O)O)C(=O)O	107 to 111
Cc1cc(-c2ccccc2)nnc1NCCN1CCOCC1	122
NNc1ccccc1C(F)(F)F	60
c1cc2[nH]cnc2cn1	172
CCOc1ccccc1OS(=O)(=O)NC(=O)Nc1nc(OC)cc(OC)n1	150
CC(CCC(=O)O)C1CCC2C3C(=O)CC4CC5(CCC4(C)C3CC(=O)C12C)OCCO5 (configuration not stated)	222
CCOC(=O)c1csc(-c2cccc(Cl)c2Cl)n1	108 to 110
